The text below walks through data of patent US12624018B1, “Inhibitors of RIPK2 and medical uses thereof” (Odyssey Therapeutics, Inc., priority 2022, dated 2026).

The structures appear in SMILES notation. pIC50: −log10 of the molar value.

Broadly, the pIC50 is the negative decadic logarithm of the IC50, by convention in mol/L.

T1 sequence (O43353 1-299 limits assumed): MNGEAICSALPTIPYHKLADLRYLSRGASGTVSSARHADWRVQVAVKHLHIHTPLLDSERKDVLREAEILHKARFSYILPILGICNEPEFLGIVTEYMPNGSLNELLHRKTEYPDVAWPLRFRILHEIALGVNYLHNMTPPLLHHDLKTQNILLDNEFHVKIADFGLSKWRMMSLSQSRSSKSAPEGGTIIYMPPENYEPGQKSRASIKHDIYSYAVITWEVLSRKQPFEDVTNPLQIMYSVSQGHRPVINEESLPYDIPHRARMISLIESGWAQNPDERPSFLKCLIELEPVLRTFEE

This assay has as its target T1, RIPK2 enzyme (Homo sapiens, UniProt O43353).
T1 construct: purchased Carna 09-128
Put plainly: RIPK2 inhibition (ADP-Glo Kinase Assay). The class given is biochemical. Particulars: RIPK2 5 nM, ATP 150 μM, MBP substrate, read-out: RIPK2 IC50. Put shortly: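 Human RIPK2 (5 nM) preincubated with compound 30 min at room temperature in 50 mM HEPES pH 7.5, 10 mM MgCl2, 2 mM DTT, 1 mM EGTA, 0.01% Brij-35, 0.05% BSA; native swine MBP as substrate. ADP formed quantified by ADP-Glo luminescence; percent inhibition relative to DMSO and no-enzyme controls.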
A general note: In ADP-Glo the light output rises with the ADP produced.
As for `Cc1c(Oc2ccnc3ccc(S(=O)(=O)N4CC(F)C4)cc23)ccc(CC(=O)Nc2cnn(C(C)(C)C)c2)c1F` [Compound 272, N-(1-(tert-butyl)-1H-pyrazol-4-yl)-2-(2-fluoro-4-((6-((3-fluoroazetidin-1-yl)sulfonyl)quinolin-4-yl)oxy)-3-methylphenyl)acetamide], the pIC50 is greater than 8.60.
As for `Cc1c(Oc2ccnc3ccc(S(=O)(=O)N4CC(C#N)C4)cc23)ccc(CC(=O)Nc2cnn(C(C)(C)C)c2)c1F` [Compound 273, N-(1-(tert-butyl)-1H-pyrazol-4-yl)-2-(4-((6-((3-cyanoazetidin-1-yl)sulfonyl)quinolin-4-yl)oxy)-2-fluoro-3-methylphenyl)acetamide], the pIC50 is greater than 8.60.
With `Cc1c(Oc2ccnc3ccc(S(=O)(=O)N4CCOCC4)cc23)ccc(CC(=O)Nc2cnn(C(C)(C)C)c2)c1F` [Compound 274, N-(1-(tert-butyl)-1H-pyrazol-4-yl)-2-(2-fluoro-3-methyl-4-((6-(morpholinosulfonyl)quinolin-4-yl)oxy)phenyl)acetamide], the pIC50 is greater than 8.60.
For the compound `Cc1c(Oc2ccnc3ccc(S(=O)(=O)N(C)CCO)cc23)ccc(CC(=O)Nc2cnn(C(C)(C)C)c2)c1F` [Compound 275, N-(1-(tert-butyl)-1H-pyrazol-4-yl)-2-(2-fluoro-4-((6-(N-(2-hydroxyethyl)-N-methylsulfamoyl)quinolin-4-yl)oxy)-3-methylphenyl)acetamide], the pIC50 is greater than 8.60.
Regarding `COCCN(C)S(=O)(=O)c1ccc2nccc(Oc3ccc(CC(=O)Nc4cnn(C(C)(C)C)c4)c(F)c3C)c2c1` [Compound 276, N-(1-(tert-butyl)-1H-pyrazol-4-yl)-2-(2-fluoro-4-((6-(N-(2-methoxyethyl)-N-methylsulfamoyl)quinolin-4-yl)oxy)-3-methylphenyl)acetamide], the pIC50 was greater than 8.60.
For the compound `Cc1c(Oc2ccnc3ccc(NS(C)(=O)=O)cc23)ccc(CC(=O)Nc2cnn(C(C)(C)C)c2)c1F` [Compound 277, N-(1-(tert-butyl)-1H-pyrazol-4-yl)-2-(2-fluoro-3-methyl-4-((6-(methylsulfonamido)quinolin-4-yl)oxy)phenyl) acetamide], the pIC50 is greater than 8.60.
Regarding `Cc1c(Oc2ccnc3ccc(N(C)S(C)(=O)=O)cc23)ccc(CC(=O)Nc2cnn(C(C)(C)C)c2)c1F` [Compound 278, N-(1-(tert-butyl)-1H-pyrazol-4-yl)-2-(2-fluoro-3-methyl-4-((6-(N-methylmethyl-sulfonamido)quinolin-4-yl)oxy)phenyl) acetamide], the negative-log IC50 (pIC50) was greater than 8.60.
As to `Cc1c(Oc2ccnc3ccc(N4CCCS4(=O)=O)cc23)ccc(CC(=O)Nc2cnn(C(C)(C)C)c2)c1F` [Compound 279, N-(1-(tert-butyl)-1H-pyrazol-4-yl)-2-(4-((6-(1,1-dioxidoisothiazolidin-2-yl)quinolin-4-yl)oxy)-2-fluoro-3-methylphenyl) acetamide], the pIC50 is greater than 8.60.
On to `Cc1cc(CC(=O)Nc2cnn(C(C)(C)C)c2)ccc1Oc1ccnc2ccc(S(=O)(=O)C3CCC3)cc12` [Compound 280, N-(1-(tert-butyl)-1H-pyrazol-4-yl)-2-(4-((6-(cyclobutylsulfonyl)quinolin-4-yl)oxy)-3-methylphenyl)acetamide], for which the pIC50 is greater than 8.60.
Regarding `Cc1cc(CC(=O)Nc2cnn(C(C)(C)C)c2)ccc1Oc1ccnc2ccc(S(=O)(=O)C3CC(O)C3)cc12` (stereo not shown) [Compound 281, N-(1-(tert-butyl)-1H-pyrazol-4-yl)-2-(4-((6-((-3-hydroxycyclobutyl)sulfonyl)quinolin-4-yl)oxy)-3-methylphenyl)acetamide], the pIC50 is greater than 8.60.
On to `Cc1c(Oc2ccnc3ccc(S(=O)(=O)C4CCC4)cc23)ccc(CC(=O)Nc2cnn(C(C)(C)C)c2)c1F` [Compound 284, N-(1-(tert-butyl)-1H-pyrazol-4-yl)-2-(4-((6-(cyclobutylsulfonyl)quinolin-4-yl)oxy)-2-fluoro-3-methylphenyl)acetamide], for which the pIC50 is greater than 8.60.
As to `CC(C)(C)n1cc(NC(=O)Cc2ncc(Oc3ncnc4ccc(O[C@H]5C[C@H]6CC[C@@H](C5)N6)cc34)cc2F)cn1` [Compound 289, 2-(5-((6-(((1R,3r,5S)-8-azabicyclo[3.2.1]octan-3-yl)oxy)quinazolin-4-yl)oxy)-3-fluoropyridin-2-yl)-N-(1-(tert-butyl)-1H-pyrazol-4-yl)acetamide], the negative-log IC50 (pIC50) is 8.37.
Regarding `Cc1cc(CC(=O)Nc2cnn(C(C)(C)C)c2)ccc1Oc1ccnc2ccc(N3CCCC3=O)cc12` [Compound 290, N-(1-(tert-butyl)-1H-pyrazol-4-yl)-2-(3-methyl-4-((6-(2-oxopyrrolidin-1-yl)quinolin-4-yl)oxy)phenyl) acetamide], the pIC50 is greater than 8.60.
With `Cc1cc(CC(=O)Nc2cnn(C(C)(C)C)c2)ccc1Oc1ccnc2ccc(N3CCOC3=O)cc12` [Compound 293, N-(1-(tert-butyl)-1H-pyrazol-4-yl)-2-(3-methyl-4-((6-(2-oxooxazolidin-3-yl)quinolin-4-yl)oxy)phenyl) acetamide], the pIC50 is greater than 8.60.
For the compound `Cc1cc(CC(=O)Nc2cnn(C(C)(C)C)c2)ccc1Oc1ccnc2ccc(N3CCOCC3=O)cc12` [Compound 294, N-(1-(tert-butyl)-1H-pyrazol-4-yl)-2-(3-methyl-4-((6-(3-oxomorpholino)quinolin-4-yl)oxy)phenyl) acetamide], the pIC50 was greater than 8.60.
Turning to `Cc1c(Oc2ccnc3ccc(N4CCCC4=O)cc23)ccc(CC(=O)Nc2cnn(C(C)(C)C)c2)c1F` [Compound 295, N-(1-(tert-butyl)-1H-pyrazol-4-yl)-2-(2-fluoro-3-methyl-4-((6-(2-oxopyrrolidin-1-yl)quinolin-4-yl)oxy)phenyl) acetamide], the pIC50 was greater than 8.60.
The same measure for `Cc1c(Oc2ccnc3ccc(N4CCOC4=O)cc23)ccc(CC(=O)Nc2cnn(C(C)(C)C)c2)c1F` [Compound 298, N-(1-(tert-butyl)-1H-pyrazol-4-yl)-2-(2-fluoro-3-methyl-4-((6-(2-oxooxazolidin-3-yl)quinolin-4-yl)oxy)phenyl) acetamide]: greater than 8.60.
Take `Cc1c(Oc2ccnc3ccc(P(C)(C)=O)cc23)ccc(CC(=O)Nc2cnn(C(C)(C)C)c2)c1F` [Compound 300, N-(1-(tert-butyl)-1H-pyrazol-4-yl)-2-(4-((6-(dimethylphosphoryl)quinolin-4-yl)oxy)-2-fluoro-3-methylphenyl) acetamide]: the pIC50 was greater than 8.60.
Turning to `CCP(=O)(CC)c1ccc2nccc(Oc3ccc(CC(=O)Nc4cnn(C(C)(C)C)c4)c(F)c3C)c2c1` [Compound 301, N-(1-(tert-butyl)-1H-pyrazol-4-yl)-2-(4-((6-(diethylphosphoryl)quinolin-4-yl)oxy)-2-fluoro-3-methylphenyl) acetamide], the pIC50 is greater than 8.60.
For `Cc1c(Oc2ccnc3ccc(C(C)(C)O)cc23)ccc(CC(=O)Nc2cnn(C(C)(C)C)c2)c1F` [Compound 302, N-(1-(tert-butyl)-1H-pyrazol-4-yl)-2-(2-fluoro-4-((6-(2-hydroxypropan-2-yl)quinolin-4-yl)oxy)-3-methylphenyl)acetamide], the pIC50 is greater than 8.60.
With `COC(C)(C)c1ccc2nccc(Oc3ccc(CC(=O)Nc4cnn(C(C)(C)C)c4)c(F)c3C)c2c1` [Compound 303, N-(1-(tert-butyl)-1H-pyrazol-4-yl)-2-(2-fluoro-4-((6-(2-methoxypropan-2-yl)quinolin-4-yl)oxy)-3-methylphenyl)acetamide], the pIC50 was greater than 8.60.
With `Cc1cc(CC(=O)Nc2cnn(C(C)(C)C)c2)ccc1Oc1ccnc2ccc(OC3CCC(=O)NC3)cc12` (stereo not shown) [Compound 307, N-(1-(tert-butyl)-1H-pyrazol-4-yl)-2-(3-methyl-4-((6-((6-oxopiperidin-3-yl)oxy)quinolin-4-yl)oxy)phenyl) acetamide], the pIC50 is greater than 8.60.
In the case of `Cc1cc(CC(=O)Nc2cnn(C(C)(C)C)c2)ccc1Oc1ccnc2ccc(OC3CCCNC3=O)cc12` (stereo not shown) [Compound 308, N-(1-(tert-butyl)-1H-pyrazol-4-yl)-2-(3-methyl-4-((6-((2-oxopiperidin-3-yl)oxy)quinolin-4-yl)oxy)phenyl) acetamide], the pIC50 was greater than 8.60.
On to `Cc1cc(CC(=O)Nc2cnn(C(C)(C)C)c2)ccc1Oc1ccnc2ccc(S(=O)(=O)CC(C)(C)O)cc12` [Compound 309, N-(1-(tert-butyl)-1H-pyrazol-4-yl)-2-(4-((6-((2-hydroxy-2-methylpropyl)sulfonyl)quinolin-4-yl)oxy)-3-methylphenyl)acetamide], for which the pIC50 was greater than 8.60.
`Cc1cc(CC(=O)Nc2cnn(C(C)(C)C)c2)ccc1Oc1ccnc2ccc(S(=O)(=O)C(C)(C)CO)cc12` [Compound 310, N-(1-(tert-butyl)-1H-pyrazol-4-yl)-2-(4-((6-((1-hydroxy-2-methylpropan-2-yl)sulfonyl)quinolin-4-yl)oxy)-3-methylphenyl)acetamide]: the pIC50 is greater than 8.60.
Consider `Cc1cc(CC(=O)Nc2cnn(C(C)(C)C)c2)ccc1Oc1ccnc2ccc(S(=O)(=O)C3CCNCC3)cc12` [Compound 311, N-(1-(tert-butyl)-1H-pyrazol-4-yl)-2-(3-methyl-4-((6-(piperidin-4-ylsulfonyl)quinolin-4-yl)oxy)phenyl)acetamide], for which the pIC50 was greater than 8.60.
With `Cc1c(Oc2ccnc3ccc(S(=O)(=O)C4CCNCC4)cc23)ccc(CC(=O)Nc2cnn(C(C)(C)C)c2)c1F` [Compound 312, N-(1-(tert-butyl)-1H-pyrazol-4-yl)-2-(2-fluoro-3-methyl-4-((6-(piperidin-4-ylsulfonyl)quinolin-4-yl)oxy)phenyl)acetamide], the negative logarithm of the IC50 (pIC50) is greater than 8.60.
In the case of `Cc1cc(CC(=O)Nc2cnn(C(C)(C)C)c2)c(F)cc1Oc1ccnc2ccc(S(=O)(=O)C3CCNCC3)cc12` [Compound 313, N-(1-(tert-butyl)-1H-pyrazol-4-yl)-2-(2-fluoro-5-methyl-4-((6-(piperidin-4-ylsulfonyl)quinolin-4-yl)oxy)phenyl)acetamide], the pIC50 was greater than 8.60.
